Patent US20240217951A1, “PCSK9 INHIBITORS AND METHODS OF USE THEREOF” (AstraZeneca AB, priority 2022, published 2024)

What was measured:
[1] = biological target: T1, hERG potassium ion channel (Homo sapiens, UniProt Q12809); test: Assay 5 - hERG assay (SyncroPatch 384PE patch clamp, CHO cells); assay type: cell-based; details: human, CHO-K1 cells over-expressing hERG, pH 7.4, geometric mean, read-out: Assay 5 (hERG Hu CHO IF EPh CR-Syncro) GMean IC50
T1 construct: expressed in transfected cells; host or cells: Chinese hamster ovary K1 (CHO)
T1 sequence (Q12809 whole entry): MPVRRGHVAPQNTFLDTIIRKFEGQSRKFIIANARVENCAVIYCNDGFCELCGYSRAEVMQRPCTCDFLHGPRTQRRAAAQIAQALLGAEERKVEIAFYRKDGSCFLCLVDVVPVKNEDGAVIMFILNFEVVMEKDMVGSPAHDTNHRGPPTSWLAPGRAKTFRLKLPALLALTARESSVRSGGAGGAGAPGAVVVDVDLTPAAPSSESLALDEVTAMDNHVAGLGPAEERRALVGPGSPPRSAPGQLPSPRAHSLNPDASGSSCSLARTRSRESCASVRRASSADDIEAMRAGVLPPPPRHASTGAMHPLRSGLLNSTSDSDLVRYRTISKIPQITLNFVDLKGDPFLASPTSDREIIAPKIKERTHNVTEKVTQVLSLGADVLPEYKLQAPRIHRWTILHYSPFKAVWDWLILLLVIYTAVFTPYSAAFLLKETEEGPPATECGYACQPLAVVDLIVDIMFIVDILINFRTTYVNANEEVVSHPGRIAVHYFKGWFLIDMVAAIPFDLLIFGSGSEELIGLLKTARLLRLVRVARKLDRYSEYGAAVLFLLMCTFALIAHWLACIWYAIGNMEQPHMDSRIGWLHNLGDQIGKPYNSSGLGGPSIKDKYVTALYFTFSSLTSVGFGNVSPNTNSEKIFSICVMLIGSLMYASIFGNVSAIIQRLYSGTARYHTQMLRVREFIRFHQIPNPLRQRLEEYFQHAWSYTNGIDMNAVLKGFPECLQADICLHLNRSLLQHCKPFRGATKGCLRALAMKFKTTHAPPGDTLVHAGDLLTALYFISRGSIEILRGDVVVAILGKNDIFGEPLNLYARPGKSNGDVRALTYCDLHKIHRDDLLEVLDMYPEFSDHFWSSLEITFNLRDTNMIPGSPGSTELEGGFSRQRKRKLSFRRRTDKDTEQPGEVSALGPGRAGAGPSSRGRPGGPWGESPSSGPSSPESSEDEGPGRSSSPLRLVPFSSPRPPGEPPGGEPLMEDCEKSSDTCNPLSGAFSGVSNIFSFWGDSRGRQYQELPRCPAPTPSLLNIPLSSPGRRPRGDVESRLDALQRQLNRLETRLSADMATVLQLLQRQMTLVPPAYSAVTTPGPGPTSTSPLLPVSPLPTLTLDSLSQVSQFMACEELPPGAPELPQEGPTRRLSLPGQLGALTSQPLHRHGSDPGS
In short: (§1)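 Automated high-throughput patch clamp on CHO-K1 cells overexpressing hERG at room temperature, KF/KCl internal with escin, NMDG-containing external at pH 7.4. Six-point cumulative compound addition, 0.33% DMSO final; wells kept only with seal >30 MΩ, Z′ >0.4 and current >0.2 nA.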

[2] = biological target: GSK3β (Glycogen synthase kinase-3 beta) (Homo sapiens, UniProt P49841); test: Assay 6 - GSK3β assay (ThermoFisher Z-Lyte); assay type: biochemical; details: geometric mean; ATP Conc: 10 μM; read-out: Assay 6 (GSK3β FRET-Z-Lyte CR) GMean IC50 (μM) ATP Conc: 10
Chain of GSK3β (Glycogen synthase kinase-3 beta) (P49841 whole entry): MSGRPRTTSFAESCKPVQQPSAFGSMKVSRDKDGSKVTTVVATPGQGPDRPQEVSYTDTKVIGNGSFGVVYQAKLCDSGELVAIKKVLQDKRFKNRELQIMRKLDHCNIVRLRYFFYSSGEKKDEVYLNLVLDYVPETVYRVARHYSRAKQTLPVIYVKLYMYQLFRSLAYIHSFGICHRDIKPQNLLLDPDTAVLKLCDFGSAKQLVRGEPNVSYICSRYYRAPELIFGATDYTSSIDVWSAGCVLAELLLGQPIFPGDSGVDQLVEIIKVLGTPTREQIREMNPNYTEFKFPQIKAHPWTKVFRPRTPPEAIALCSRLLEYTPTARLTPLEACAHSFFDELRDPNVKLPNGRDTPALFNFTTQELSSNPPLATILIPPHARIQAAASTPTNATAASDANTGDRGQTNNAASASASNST
In short: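 Z-Lyte fluorescence kinase assay with 0.22-0.92 ng GSK3β and 2 μM Ser/Thr 09 peptide in 50 mM HEPES pH 7.5, 10 mM MgCl2, 1 mM EGTA, 0.01% BRIJ-35. Kinase reaction 60 min at room temperature, then 60 min development. 10-point 3-fold titration from 10 μM in 1% DMSO, fitted to a sigmoidal dose-response curve.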

PCSK9 = PCSK9 (Homo sapiens, UniProt Q8NBP7, G670E/V474I); test: biochemical
Chain of PCSK9 (Q8NBP7 with tags, fused parts or gaps V474I/G670E): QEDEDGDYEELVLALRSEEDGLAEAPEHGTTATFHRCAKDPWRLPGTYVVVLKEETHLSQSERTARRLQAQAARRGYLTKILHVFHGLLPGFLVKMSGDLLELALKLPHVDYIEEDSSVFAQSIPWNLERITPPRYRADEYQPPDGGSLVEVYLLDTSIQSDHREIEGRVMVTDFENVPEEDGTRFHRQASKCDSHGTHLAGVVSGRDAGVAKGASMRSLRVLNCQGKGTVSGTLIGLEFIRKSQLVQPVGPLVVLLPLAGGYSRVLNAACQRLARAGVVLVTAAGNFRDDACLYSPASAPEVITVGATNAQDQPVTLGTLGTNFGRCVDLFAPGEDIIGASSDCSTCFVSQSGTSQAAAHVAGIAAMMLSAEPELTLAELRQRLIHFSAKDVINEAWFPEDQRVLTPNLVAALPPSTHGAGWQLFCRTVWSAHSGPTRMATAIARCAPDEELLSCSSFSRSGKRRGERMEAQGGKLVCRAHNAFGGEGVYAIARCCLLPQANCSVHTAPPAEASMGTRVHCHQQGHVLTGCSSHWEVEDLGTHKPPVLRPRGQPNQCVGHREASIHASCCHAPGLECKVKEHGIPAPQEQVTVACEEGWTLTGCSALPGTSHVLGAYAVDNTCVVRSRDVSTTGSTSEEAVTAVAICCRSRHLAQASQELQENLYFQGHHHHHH

human PCSK9 = biological target: T2, human PCSK9 (Homo sapiens, UniProt Q8NBP7); test: Assay 2 - Biophysical human PCSK9 assay (SPR, Biacore); assay type: binding; details: geometric mean; SPR at 30° C; read-out: Assay 2 (PCSK9 BIAcore DBA CR) GMean Kd
T2 construct: biotinylated human PCSK9 (31-692)-Avi-His6; His6 (C)
T2 sequence (Q8NBP7 31-692): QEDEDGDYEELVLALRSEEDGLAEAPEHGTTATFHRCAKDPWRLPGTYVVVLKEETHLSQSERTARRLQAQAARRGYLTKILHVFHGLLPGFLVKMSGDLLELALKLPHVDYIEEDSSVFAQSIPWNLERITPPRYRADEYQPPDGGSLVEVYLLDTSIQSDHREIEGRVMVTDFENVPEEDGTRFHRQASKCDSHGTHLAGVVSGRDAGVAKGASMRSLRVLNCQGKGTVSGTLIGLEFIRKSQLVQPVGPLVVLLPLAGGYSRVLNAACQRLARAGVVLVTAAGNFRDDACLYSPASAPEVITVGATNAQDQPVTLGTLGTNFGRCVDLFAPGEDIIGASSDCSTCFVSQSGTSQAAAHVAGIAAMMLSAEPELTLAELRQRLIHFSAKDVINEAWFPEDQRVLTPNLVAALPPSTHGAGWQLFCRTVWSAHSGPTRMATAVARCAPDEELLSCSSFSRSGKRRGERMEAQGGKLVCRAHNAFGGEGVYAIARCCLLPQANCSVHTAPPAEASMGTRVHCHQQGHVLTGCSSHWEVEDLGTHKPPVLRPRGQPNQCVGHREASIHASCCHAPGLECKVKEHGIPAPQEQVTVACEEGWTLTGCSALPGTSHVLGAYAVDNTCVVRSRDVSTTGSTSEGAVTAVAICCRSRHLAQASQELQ
Procedure: Assay 2—Biophysical Human PCSK9 Assay
The SPR binding experiments were performed on a Biacore S200 optical biosensor unit at 30° C. A Series S Sensor Chip SA that is designed to bind biotinylated molecules for interaction analysis in Biacore systems was equilibrated at room temperature prior to use. The running buffer for protein tethering and subsequent ligand binding experiments was 10 mM HEPES pH 7.4, 150 mM NaCl, 0.05% (v/v) Tween 20 pH 7.4.
For the surface tethering of PCSK9, biotinylated human PCSK9 (31-692)-Avi-His6 at a concentration of 0.5 mg/mL was used. Prior to the surface tethering, the surface was exposed to a solution of 50 mM NaOH, 500 mM NaCl via 3 consecutive injections of this solution with a contact time of 60 s and a flowrate of 10 μL min^−1 to remove non-conjugated streptavidin. The PCSK9 protein was diluted to a concentration of 20 μg/mL using running buffer and injected with a contact time of 180-300 s and a flowrate of 10 μL min^−1 over a single flow channel (typically flow channel 2 or flow channel 4) with the aim to achieve protein capture levels of >5000 response units (RU). Remaining biotin binding sites were blocked via 2 consecutive injections of a 10 μM D-biotin solution in running buffer with a contact time of 60 s and a flowrate of 10 μL min^−1 over all flow-channels. Flow-channels 1 and 3 typically served as a reference surface throughout the subsequent binding experiments.
The binding experiments were all performed at a flow rate of 30 PL min^−1 and by employing the method of single-cycle kinetics. This approach involves the sequential injection of a compound concentration series without regeneration steps. A contact time between 90-150 s was selected, which was followed by a 40 min dissociation phase to allow for a proper estimation of the dissociation rate constant. Test compounds were delivered in DMSO at a concentration of 10 mM and a digital dispenser HP D300 was used to set up the compound concentration series using 6 concentrations. The tested concentrations have been 30, 100, 300, 1000, 3000 and 10000 nM. Prior to injecting any compound, the surfaces were equilibrated by injecting running buffer over them in three separate pulses. The data collection rate was set to 10 Hz.
The raw sensorgrams of the compound injections were first subjected to reference subtraction (subtracting the signal from flow channel 1 and/or 3 from the signal from channels 2 and/or 4 respectively) and then blank subtraction (subtracting the signal from injecting DMSO controls from the reference subtracted data). The resulting double-referenced sensorgrams were then fitted using a 1:1 binding interaction model using the manufactures software package to extract kinetic- and affinity data. Active compounds have been defined by creating a detectable binding signal at the highest compound concentration ([…]) of 3 RUs. Kinetic- and affinity data on active compounds are only provided for those compounds where the binding signal at the highest compound concentration ([…]) is 50% of the theoretical maximum binding signal for a 1:1 binding interaction (Rmax, typically between 15-20 RUs) in order to enable a proper fitting of the data.

[3] = biological target: T3, potassium ion channel hERG (human Ether-á-go-go-Related Gene) (Homo sapiens, UniProt Q12809); test: Assay 5 - hERG assay (SyncroPatch 384PE patch clamp, CHO cells); assay type: cell-based; details: geometric mean; CHO cells over-expressing hERG; read-out: Assay 5 (hERG Hu CHO IF EPh CR-Syncro) GMean IC50
T3 construct: expressed in transfected cells; host or cells: Chinese hamster ovary K1 (CHO)
T3 sequence (Q12809 whole entry): as the sequence (Q12809 whole entry) above
In short: as §1

[4] = clinical trials, patients; alirocumab compared to placebo; cited from earlier work

Row | Compound | IC50 [1] [nM] | IC50 [2] [µM] | IC50 (PCSK9) [nM] | Kd (human PCSK9) [nM] | IC50 [3] [nM] | decrease in LDL levels [4]
1 | Cc1nc(N[C@H]2CC[C@H](Nc3cnc(OC(F)F)cn3)C2)ccc1-n1ccccc1=O [Example 97, 6′-(((1S,3S)-3-((5-(Difluoromethoxy)pyrazin-2-yl)amino)cyclopentyl)amino)-2′-methyl-2H-[1,3′-bipyridin]-2-one] | 35400 | > 10 | 63 | 26 | – | –
2 | O=c1ccccn1-c1ccc(N[C@H]2CC[C@H](Nc3cnc4ccc(Cl)cc4n3)C2)nc1 [Example 139, 6′-(((1S,3S)-3-((7-Chloroquinoxalin-2-yl)amino)cyclopentyl)amino)-2H-[1,3′-bipyridin]-2-one] | – | 0.292 | 235 | 460 | 4600 | –
3 | Cc1cncc(N[C@H]2CC[C@H](Nc3ccc(-n4ccccc4=O)cn3)C2)n1 [Example 141, 6′-(((1S,3S)-3-((6-Methylpyrazin-2-yl)amino)cyclopentyl)amino)-2H-[1,3′-bipyridin]-2-one] | – | > 10 | 592 | 405 | > 40000 | –
4 | N#Cc1cncc(N[C@H]2CC[C@H](Nc3ccc(-n4ccccc4=O)cn3)C2)n1 [Example 142, 6-(((1S,3S)-3-((2-Oxo-2H-[1,3′-bipyridin]-6′-yl)amino)cyclopentyl)amino)pyrazine-2-carbonitrile] | – | 0.764 | 1610 | 2420 | > 35400 | –
5 | O=c1ccccn1-c1ccc(N[C@H]2CC[C@H](Nc3cnc4cccnc4n3)C2)nc1 [Example 143, 6′-(((1S,3S)-3-(Pyrido[2,3-b]pyrazin-3-ylamino)cyclopentyl)amino)-2H-[1,3′-bipyridin]-2-one] | – | > 10 | 2390 | 1540 | > 40000 | –
6 | COc1cccc2ncc(N[C@H]3CC[C@H](Nc4ccc(-n5ccccc5=O)cn4)C3)nc12 [Example 144, 6′-(((1S,3S)-3-((8-Methoxyquinoxalin-2-yl)amino)cyclopentyl)amino)-2H-[1,3′-bipyridin]-2-one] | – | 2.34 | 484 | 336 | > 35000 | –
7 | O=c1ccccn1-c1ccc(N[C@H]2CC[C@H](Nc3cnc4c(F)cccc4n3)C2)nc1 [Example 145, 6′-(((1S,3S)-3-((5-Fluoroquinoxalin-2-yl)amino)cyclopentyl)amino)-2H-[1,3′-bipyridin]-2-one] | – | > 10 | 960 | 637 | 18500 | –
8 | Nc1ccc2ncc(N[C@H]3CC[C@H](Nc4ccc(-n5ccccc5=O)cn4)C3)nc2n1 [Example 146, 6′-(((1S,3S)-3-((6-Aminopyrido[2,3-b]pyrazin-3-yl)amino)cyclopentyl)amino)-2H-[1,3′-bipyridin]-2-one] | – | > 10 | 1480 | 1500 | > 40000 | –
9 | Cc1cnc(N[C@H]2CC[C@H](Nc3ccc(-n4nc(C)ccc4=O)cn3)C2)cn1 [Example 231, 6-Methyl-2-(6-(((1S,3S)-3-((5-methylpyrazin-2-yl)amino)cyclopentyl)amino)pyridin-3-yl)pyridazin-3 (2H)-one] | – | > 10 | 46 | 35 | > 40100 | –
10 | Cc1cnc(N[C@H]2CC[C@H](Nc3ccc(-n4nccc(C#N)c4=O)cn3)C2)cn1 [Example 278, 2-(6-(((1S,3S)-3-((5-Methylpyrazin-2-yl)amino)cyclopentyl)amino)pyridin-3-yl)-3-oxo-2,3-dihydropyridazine-4-carbonitrile] | – | > 10 | 13 | 12 | > 40100 | –
11 | alirocumab | – | – | – | – | – | about 50%
